Test [1] concerns nuclear transcription factor κB (NF-κB) activation. Conditions: cited from earlier work; for activation of IRAK-1, IKK-β, NF-κB, and MAP kinases (ERK, JNK, and p-38): LPS-stimulated murine peritoneal macrophages; for NF-κB activation: lipopolysaccharide (LPS)-stimulated murine peritoneal macrophages.
A further test deals with T1, PPARγ (Homo sapiens, UniProt P37231).
T1 sequence (P37231 1-505): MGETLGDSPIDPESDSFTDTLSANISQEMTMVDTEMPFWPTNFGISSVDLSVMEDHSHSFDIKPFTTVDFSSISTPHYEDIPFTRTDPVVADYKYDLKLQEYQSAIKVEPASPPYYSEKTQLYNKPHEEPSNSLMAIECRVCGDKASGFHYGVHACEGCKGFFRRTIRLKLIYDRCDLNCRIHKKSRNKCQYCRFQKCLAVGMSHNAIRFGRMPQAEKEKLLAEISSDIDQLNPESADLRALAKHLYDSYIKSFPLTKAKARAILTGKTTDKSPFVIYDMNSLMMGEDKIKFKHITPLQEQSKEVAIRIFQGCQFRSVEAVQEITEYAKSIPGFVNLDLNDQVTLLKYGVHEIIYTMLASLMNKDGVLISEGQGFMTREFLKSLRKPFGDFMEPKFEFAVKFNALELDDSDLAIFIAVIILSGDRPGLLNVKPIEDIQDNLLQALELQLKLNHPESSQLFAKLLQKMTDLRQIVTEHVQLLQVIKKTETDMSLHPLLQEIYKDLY
The following applies: classified by ability to inhibit rosiglitazone-induced cellular responses; cited from earlier work.

Test [2] concerns Human Neuroblastoma cells (SH Sy5Y cells cell line). The test is described as follows: in-vitro curcumin delivery experiment (curcumin fluorescence). Format: cell-based. Conditions: after 3.5 hours of treatment, relative to the 1 hour time point. An excerpt: FIGS. 5a-b depict different time points of the same experiment. […] This effect might be due to intra-cellular metabolism of the curcumin present in the SLN 10+Caffeine 13 sample.

The target of a further test is T2, cyclooxygenase-2 (COX-2) (Homo sapiens, UniProt P35354).
T2 sequence (P35354 18-604): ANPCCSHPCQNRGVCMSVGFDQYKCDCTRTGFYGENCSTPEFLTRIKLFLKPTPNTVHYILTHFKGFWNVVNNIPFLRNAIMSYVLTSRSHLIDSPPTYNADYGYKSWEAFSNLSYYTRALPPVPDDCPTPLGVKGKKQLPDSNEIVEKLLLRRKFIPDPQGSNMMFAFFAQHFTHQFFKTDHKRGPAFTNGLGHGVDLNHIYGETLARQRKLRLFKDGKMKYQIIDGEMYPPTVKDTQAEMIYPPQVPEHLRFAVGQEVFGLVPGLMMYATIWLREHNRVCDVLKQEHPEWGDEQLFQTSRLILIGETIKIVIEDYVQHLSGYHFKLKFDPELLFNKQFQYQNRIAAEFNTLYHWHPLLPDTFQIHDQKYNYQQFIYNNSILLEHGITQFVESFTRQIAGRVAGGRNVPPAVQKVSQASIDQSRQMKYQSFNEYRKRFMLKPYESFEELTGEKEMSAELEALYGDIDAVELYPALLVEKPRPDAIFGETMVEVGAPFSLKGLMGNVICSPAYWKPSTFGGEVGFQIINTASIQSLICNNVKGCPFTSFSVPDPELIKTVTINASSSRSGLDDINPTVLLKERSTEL
Conditions: cited from earlier work.

For the compound `CC(C)=CCC[C@](C)(O[C@@H]1O[C@H](CO)[C@@H](O)[C@H](O)[C@H]1O)[C@H]1CC[C@]2(C)[C@@H]1[C@H](O)C[C@@H]1[C@@]3(C)CC[C@H](O)C(C)(C)[C@@H]3CC[C@]12C` [compound K], in test [1], the “activation of IRAK-1, IKK-β, NF-κB, and MAP kinases (ERK, JNK, and p-38)” value is given as “significantly inhibited”; the NF-κB activation result is listed as “inhibited”.

With `O=c1c(O)c(-c2ccc(O)c(O)c2)oc2cc(O)cc(O)c12` [quercetin], the “PPARγ activity (agonist, antagonist or modulator)” value (“PPARγ activity” below) on PPARγ is given as “antagonists”.

Regarding `CC(C)=CCC[C@](C)(O[C@@H]1O[C@H](CO[C@@H]2O[C@H](CO)[C@@H](O)[C@H](O)[C@H]2O)[C@@H](O)[C@H](O)[C@H]1O)[C@H]1CC[C@]2(C)[C@@H]1[C@H](O)C[C@@H]1[C@@]3(C)CC[C@H](O[C@@H]4O[C@H](CO)[C@@H](O)[C@H](O)[C@H]4O[C@@H]4O[C@H](CO)[C@@H](O)[C@H](O)[C@H]4O)C(C)(C)[C@@H]3CC[C@]12C` [ginsenoside Rb1], in test [1], the “activation of IRAK-1, IKK-β, NF-κB, and MAP kinases (ERK, JNK, and p-38)” value is recorded as “significantly inhibited”; the NF-κB activation result is “inhibited”.

Regarding `O=c1cc(-c2ccc(O)c(O)c2)oc2cc(O)cc(O)c12` [luteolin], the “PPARγ activity” value at PPARγ is “antagonists”.

For the compound `O=C(/C=C/c1ccc(O)c(O)c1)O[C@H](Cc1ccc(O)c(O)c1)C(=O)O` [rosmarinic acid], the “PPARγ activity” value at PPARγ is recorded as “antagonists”.

Consider `O=C1C[C@@H](c2ccc(O)cc2)Oc2cc(O)cc(O)c21` [naringenin], for which the “PPARγ activity” value at PPARγ was “modulators”.

In the case of `COc1cc(/C=C/C(=O)CC(=O)/C=C/c2ccc(O)c(OC)c2)ccc1O` [curcumin], the curcumin fluorescence entry in test [2] is recorded as “remained at the same levels”.

As for `COc1ccc(-c2coc3cc(O)cc(O)c3c2=O)cc1` [biochanin A], the “PPARγ activity” value on PPARγ is “agonist”.

In the case of `O=c1cc(-c2ccc(O)cc2)oc2cc(O)cc(O)c12` [apigenin], the “PPARγ activity” value on PPARγ was “modulators”.

On to C-phycocyanin, for which the “IC50 COX-2/IC50 COX-1 ratio” value at cyclooxygenase-2 (COX-2) is 0.04.

Consider `COc1ccc(-c2cc(=O)c3c(O)cc(O)cc3o2)cc1O` [diosmetin], for which, on PPARγ, the “PPARγ activity” value is “antagonists”.

The values are drawn from patent US20240269317A1, “TARGETED ENCAPSULATION STRATEGIES FOR TREATMENT MODALITIES” (NUTARIA LTD., priority 2021, published 2024).
